Data as given in patent US4226877A, “Pyrazoles active in the central nervous system” (Abbott Laboratories, priority 1979, dated 1980).
Where two headings read alike, the source gives them in different places.

Legend:
[1] = test system: brain level of homovanillic acid (HVA); assay: Effect of drug compounds on brain level of homovanillic acid (HVA) in rats; assay type: in vivo, male Long Evans rats; settings: brains (minus cerebella) removed two or three hours later, control = 1
Protocol: In testing for the effectiveness of the present drug compounds on the brain level of homovanillic acid (HVA), the drugs were administered intraperitoneally to male Long Evans rats (Simonsen) usually as aqueous solutions but in certain cases as suspensions in 0.5% methocel in 0.9% saline. The standard testing dose was […] body weight. The test and control groups consisted of 3-5 and 5 animals, respectively. The analyses were performed on brains (minus cerebella) removed two or three hours later. In the analyses, standard extraction and fluorimetric methods were used.
Antipsychotic agents increase the synthesis and release of dopamine which is converted to HVA. The HVA level is therefore a measure of dopamine release.

[2] = test system: methamphetamine-induced hyperactivity; assay: Rat methamphetamine antagonism test; assay type: in vivo, Male, Long-Evans, black hooded rats; settings: for ED50: Rattus norvegicus; for % Change From Placebo Control: methamphetamine 1 mg/kg i.p. one hour later
Protocol: The second test for identifying potential antipsychotic properties was the rat methamphetamine antagonism test.
[…] Three rats were tested at each dose level. Placebo controls received a volume dose of the 0.5% carboxymethylcellulose vehicle. One hour after drug administration, the animals received methamphetamine at an intraperitoneal dose of 1 mg/kg and were placed in individual test chambers equipped with photocells (Lehigh Valley, Model 1497). Antagonism of methamphetamine-induced hyperactivity was recorded as digital counts received from the photocells at one and two hour intervals.
The drug data were compared to placebo control values to identify statistically significant differences using a one-way analysis of variance computer program. ED50's were calculated by the method of Litchfield and Wilcoxin (J. Pharmacol. Exper. Therap.: 96:99, 1949).

[3] = Dose 0.15 (moles/kg body weight), intraperitoneal
[4] = oral, calculated by the method of Litchfield and Wilcoxin, read-out: ED50

SMILES	HVA Level; Compound : Control Ratio ([1]; Dose 0.03, intraperitoneal)	ED50 ([2]; po) [mg/kg]	% Change From Placebo Control ([2]; oral dose 5 mg/kg)	% Change From Placebo Control ([2]; oral dose 10 mg/kg) [%]	% Change From Placebo Control ([2]; oral dose 20 mg/kg)	HVA Level; Compound : Control Ratio [1, 3]	ED50 [2, 4] [mg/kg]	% Change From Placebo Control ([2]; oral dose 80 mg/kg) [%]
CN(C)CCCN1c2ccccc2Sc2ccc(Cl)cc21 [Chlorpromazine, reference compound]	3.9	15	+10%	-40	-74%			
CCN1CCCC1CNC(=O)c1c(C)nn(C)c1OC (centres unmarked) [I, N-[(1-ethyl-2-pyrrolidinyl)methyl]-5-methoxy-1,3-dimethylpyrazole-4-carboxamide]			-9%		-35%	4.0	44	-60
CCN1CCCC1CNC(=O)c1c(C)nn(C(C)C)c1OC (centres unmarked) [II, N-[(1-Ethyl-2-pyrrolidinyl)methyl]-1-isopropyl-5-methoxy-3-methylpyrazole-4-carboxamide]			-16%		-13%	1.8	> 80	-16
CCN1CCCC1CNC(=O)c1c(C(C)C)nn(C)c1OC (centres unmarked) [III, N[(1-Ethyl-2-pyrrolidinyl)methyl]-3-isopropyl-5-methoxy-1-methylpyrazole 4-carboxamide]			-31%		-33%	1.0	> 80	-12
CCN1CCCC1CNC(=O)c1c(C)nn(C(C)C)c1O (centres unmarked) [IV]			+35%		+28%	2.2	> 80	-18
CCN1CCCC1CNC(=O)c1cc(S(N)(=O)=O)ccc1OC (centres unmarked) [Sulpiride, reference compound]			+27%		+21%	3.0	> 80	0
CCN1CCCC1CNC(=O)c1c(C)nn(-c2ccccc2)c1OC (centres unmarked) [V, N-[(1-Ethyl-2-pyrrolidinyl)methyl]-5-methoxy-3-methyl-1-phenyl pyrazole-4-carboxamide]			-23%		-32%	3.3	23.5	-81
